Test results reported in PubChem BioAssay AID179 (DTP/NCI, 2004).
Values joined by “and” are separate entries in the source; they are usually repeats but may differ in a detail not shown here. Identical values can stand only once. Active and inactive are the calls of the source.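 Rule for the calls: active = compounds giving half or more protection of infected cells from virus-caused growth loss, again on retest; inactive = the rest.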

Tested on: CEM cells HIV-1 protection, formazan growth assay
Experiment: NCI AIDS Antiviral Assay
Conditions: for IC50: measured here: growth of uninfected CEM cells
Procedure, shortened: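 CEM (human) cells, HIV-1 infected vs uninfected, 5-point dosing, formazan growth read-out. Retest threshold 50% protection.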

Compound | outcome | EC50 | IC50
COC(=O)C1Cc2c([nH]c3ccccc23)[C@H](CC(C)C)N1 (stereo partly drawn) | inactive | – | –
CC(=O)c1sc2n(C)c(=O)c3ccccc3[n+]2c1C | – | > 200 µM | > 200 µM
OC1CCC(C#CC#CC2CCC(O)CC2)CC1 (stereo not drawn) | – | > 100 µM | > 100 µM
C[C@@H]1S[C@H](c2c(F)cccc2Cl)n2c1nc1ccccc12 | – | 3.55 µM | 12.9 µM
COc1ccc2cc1Oc1ccc(cc1)CC1=NCCc3cc(OC)c(cc31)Oc1c(OC)c(OC)c(OC)c3c1[C@H](C2)N(C)CC3 | inactive | – | –
Cc1cc(C(=O)c2ccccc2)c2oc(-c3ccccc3)c(Cl)c(=O)c2c1 | – | > 47.9 µM | > 47.9 µM
CC(C)COC(=O)c1ccc(N=Cc2ccc(C=Nc3ccc(C(=O)OCC(C)C)cc3)cc2)cc1 | – | > 10.7 µM | > 10.7 µM
O=c1c2ccccc2nc(/C=C(\O)c2ccccc2)n1-c1ccccc1Cl | inactive | – | –
c1ccc2c(c1)c1c(n2CCOCCN2CCCCC2)CCCC1 | – | > 200 µM | 8.32 µM
CN(C)c1cccc(/C=C(\C#N)c2ccccc2)c1 | – | > 200 µM | 0.339 µM
Cc1cn(C2CC(N=C(N)NO)C(CO)O2)c(=O)[nH]c1=O (stereo not drawn) | – | > 5250 µM | 708 µM
O=C1OC2(OC2c2ccccc2)c2ccccc21 (stereo not drawn) | – | > 200 µM | > 200 µM
O=C(OCC1OC(c2nn[nH]n2)C(OC(=O)c2ccccc2)C1OC(=O)c1ccccc1)c1ccccc1 (stereo not drawn) | – | > 200 µM | 70.8 µM
NCCSc1nc2ccccc2c(=O)n1-c1ccccc1 | – | > 200 µM | 30.2 µM
CC1(C)CC2(CC(C)(C)c3cc(O)c(O)cc32)c2cc(O)c(O)cc21 | – | > 275 µM | 14.1 µM
O=C1C(Cl)=C(c2ccc([N+](=O)[O-])cc2)C(=O)c2c(O)cccc21 | – | > 79.4 µM | 1.12 µM
O=C(Nc1cccc(Cc2cccc(NC(=O)c3ccccc3)c2)c1)c1ccccc1 | – | > 9.33 µM | > 9.33 µM
O=c1ccnc(SSc2nccc(=O)[nH]2)[nH]1 | – | > 200 µM | > 200 µM
Cc1ccc(O)c(C(c2ccc([N+](=O)[O-])cc2)c2cc(C)ccc2O)c1 | inactive | – | –
CCOC(=O)Nn1c(C)nnc1CC#N | – | > 200 µM | > 200 µM
Cc1nc(N)c(N2CCN(S(=O)(=O)N(Cc3ccccc3)Cc3ccccc3)CC2)c(=O)[nH]1 | – | > 195 µM | 120 µM
CC#CCCC1CCCCN(C(=O)OC(C)(C)C)C1OCC (stereo not drawn) | – | > 115 µM | 58.9 µM

Compound | outcome | EC50 | IC50
CC(SSC(C)N1C(=O)c2ccccc2C1=O)N1C(=O)c2ccccc2C1=O (stereo not drawn) | – | > 100 µM | > 100 µM
Cc1noc(NC(=O)Nc2ccccc2C(F)(F)F)c1C | – | > 200 µM | > 200 µM
CC1(C)OC1COc1c2occc2cc2ccc(=O)oc12 (stereo not drawn) | – | > 155 µM | 74.1 µM
CCOC(=O)c1cc(-c2ccc([N+](=O)[O-])cc2)c([N+](=O)[O-])[nH]1 | – | > 200 µM | 7.94 µM
COC(OC)C1OC(CO)C(n2cc(F)c(=O)[nH]c2=O)C1O (stereo not drawn) | – | > 200 µM | > 200 µM
CCCc1cc2c(=O)c(C(=O)OC)c[nH]c2cc1N(CC)CC | – | > 200 µM | > 200 µM
Cc1nc(Nc2ccc(Cl)cc2Cl)sc1C(=O)Nc1ccccc1 | – | > 200 µM | 117 µM
COc1ccccc1N/N=c1/c2n(-c3ccc(Cl)cc3)c(=S)n(-c3ccccn3)c1=NCCN=2 | – | > 200 µM | > 200 µM
O=C(Nc1ccc(C2=NCCN2)cc1)c1ccc(F)c(C(=O)Nc2ccc(C3=NCCN3)cc2)c1 | – | > 200 µM | > 200 µM
O=[N+]([O-])c1ccc(Cl)cc1C=NC12CC3CC(CC(C3)C1)C2 | – | > 200 µM | 11.5 µM
O=C(CSc1nc(-c2ccccc2)c(-c2ccccc2)[nH]1)N/N=C/c1ccc([N+](=O)[O-])cc1 | – | > 21.9 µM | 10 µM
CN1C(=O)N(c2ccccc2)C2(CCN(CC3COc4ccccc4O3)CC2)C1=O (stereo not drawn) | – | > 200 µM | > 200 µM
Cc1cccc2c(N)c3cccc(C(=O)NCCNCCN)c3nc12 | – | > 0.2 µM | 0.11 µM
O=c1c2c(F)c(F)c(F)c(F)c2sc2nccn12 | – | > 200 µM | 3.89 µM
N/C(CCCC/C(N)=N/O)=N\O | – | > 200 µM | > 200 µM
COc1c2ccoc2nc2c(OC)c(OCC(O)C(C)(C)O)ccc12 (stereo not drawn) | – | > 513 µM | > 513 µM
CC#CCCCC1(C)CCNC1=S (stereo not drawn) | – | > 200 µM | > 200 µM
COc1cc2c(cc1OC)-c1cc3cc(OC)c(OC)cc3n1CC2 | – | > 4.27 µM | 2.4 µM
COc1ccc(CCN=C2OCc3ccccc32)cc1OC | – | > 200 µM | 11.7 µM
O=[N+]([O-])c1ccccc1S(=O)(=O)c1ccc(Cl)cc1 | – | 12.3 µM and 20.9 µM | 50.1 µM and 81.3 µM
COc1ccc(C2CC(c3c(O)ccc4ccccc34)=NN2)cc1OC (stereo not drawn) | – | > 200 µM | 5.5 µM
C=C=C(C)CN(CC)CC | – | > 1580 µM | > 1580 µM

Compound | outcome | EC50 | IC50
COC(=O)CCc1ccc2c(c1)CCC2 | – | > 200 µM | > 200 µM
CCN1CCC(O)(/C=C/c2ccc(C)cc2)C(C(=O)/C=C/c2ccc(C)cc2)C1 (stereo not drawn) | – | > 117 µM | 2.57 µM
CC(=O)NCCCCNCCCNC(C)=O | – | > 200 µM | > 200 µM
O=S(O)CCCCCSSCCCCSSCCCCCS(=O)O | inactive | – | –
O=C1CCC2COc3ccc(O)c1c32 (stereo not drawn) | inactive | – | –
COc1ccc(NC2C(=O)C3(C)CCC2C3(C)C)cc1 (stereo not drawn) | inactive | – | –
O=C(C=P(c1ccccc1)(c1ccccc1)c1ccccc1)C12CC3CC(CC(C3)C1)C2 | – | > 100 µM | 6.61 µM
NC1=CN2c3ccccc3N(CC(=O)N3CCOCC3)C2C=C1 (stereo not drawn) | – | > 200 µM | > 200 µM
COc1cccc(/C=C/C(=O)c2ccccc2)c1 | – | > 57.5 µM | 11 µM
O=S(=O)(O)c1cc(O)c2c(O)cc(S(=O)(=O)O)cc2c1 | – | 347 µM | 550 µM
CCOC(=O)N1N=NC2C3OC(C[C@@]3(C#N)OC(C)=O)[C@H]21 (stereo partly drawn) | inactive | – | –
CNc1ncnc2c1ncn2C1C=CC(COS(N)(=O)=O)C1 (stereo not drawn) | – | > 200 µM | > 200 µM
Cn1c(=O)c2c(nc3n2CCC(=O)N3)n(C)c1=O | – | > 251 µM | > 251 µM
NC1=C(O)/C(=N/NS(=O)(=O)c2ccccc2)C(c2cccc(Cl)c2)O1 (stereo not drawn) | – | > 661 µM | 32.4 µM
CC(=O)Oc1cc(C)cc2ccc(-c3ccc4cc(C)cc(OC(C)=O)c4c3OC(C)=O)c(OC(C)=O)c12 | – | > 200 µM | 28.8 µM
CC(C)(O)c1cc2c(cc1C(C)(C)O)-c1ccccc1-2 | – | > 200 µM | > 200 µM
COc1ccc(/C=C2\N=C(c3ccccc3)OC2=O)c(OCc2ccccc2)c1 | – | > 9.77 µM | > 9.77 µM
CCCCCCCCCCCCCOC(=O)CC(C(=O)OCCCCCCCCCCCCC)S(=O)(=O)O (stereo not drawn) | – | > 200 µM | 102 µM
Cc1ccc(OCC2OC(n3cnc4nc(Nc5ccc(Cl)c(Cl)c5)nc(Cl)c43)CC2Oc2ccc(C)cc2)cc1 (stereo not drawn) | – | > 100 µM | > 100 µM
Oc1ccc(-c2nn3c(CCCCCCCCc4nnc5sc(-c6ccc(O)cc6)nn45)nnc3s2)cc1 | – | 145 µM | > 200 µM
Cc1ccc(S(=O)(=O)c2ccsc2NC(=O)C(F)(F)F)cc1 | – | > 200 µM | 46.8 µM
COc1cccc(NC(=O)CC(=O)N2N=C(n3ccc4ccccc43)CC2c2ccccc2)c1 (stereo not drawn) | inactive | – | –

Compound | outcome | EC50 | IC50
CCN(CC)CCN=Cc1c(O)c(O)c(C(C)C)c2cc(C)c(-c3c(C)cc4c(C(C)C)c(O)c(O)c(C=NCCN(CC)CC)c4c3O)c(O)c12 | – | > 200 µM | 1.02 µM
CC1CCC2(NC1)OC1CC3[C@@H]4CC=C5C=CCC[C@]5(C)C4CC[C@]3(C)C1C2C (stereo partly drawn) | – | > 9.55 µM | > 9.55 µM
Cc1csc2[nH]c3ccccc3[n+]12 | inactive | – | –
N#C/C(=C(/C#N)c1ccccc1)c1ccccc1 | – | > 200 µM | > 200 µM
O=C(NC(=O)c1ccccc1[N+](=O)[O-])Nc1ccc(Oc2ncc(Cl)cn2)c(C(F)(F)F)c1 | inactive | – | –
Cc1ccc(N(C)S(=O)(=O)c2ccccc2[N+](=O)[O-])cc1 | – | 10.7 µM | 36.3 µM
COc1ccc2c(c1)CCc1c(-c3noc4c3CCc3cc(OC)ccc3-4)noc1-2 | – | > 234 µM | > 234 µM
COC(=O)c1cc(C(=CC=O)c2cc(Cl)c(OC)c(C(=O)OC)c2)cc(Cl)c1OC | – | > 200 µM | 8.91 µM
O=C(NCCc1c(-c2ccccc2)[nH]c2ccccc12)C1CCCCC1 | – | > 200 µM | 15.8 µM
CCOC(=O)C1=C(O)c2ccccc2C(=O)C1=O | – | > 525 µM | 316 µM
CCn1c(=O)c(N=O)c(N)n(CCCO)c1=O | – | > 200 µM | > 200 µM
CC(=O)OC[C@]1(O)CC[C@@]23CC1C[C@@H]2CCC1C(C)(C)CCC[C@@]13C (stereo partly drawn) | – | > 20.9 µM | > 20.9 µM
NC(=O)NCc1c(C(N)=O)ncn1Cc1ccccc1 | inactive | – | –
Cn1c2nc(=Nc3ccc(Cl)cc3)n3ccc4ccccc4c3c2c(=O)n1-c1ccccc1 | – | > 200 µM | 158 µM
CCOP(=O)(OCC)/C(C#N)=C/c1cccn1C(C)C | – | 151 µM | > 200 µM
COc1cc2c[n+](C)c3c4cc5c(cc4ccc3c2cc1OC)OCO5 | – | > 17.8 µM | 0.437 µM
CCOP(=O)(OCC)C(C)(CC)NC1=NC(C(F)(F)F)(C(F)(F)F)NC(=O)N1 (stereo not drawn) | – | > 200 µM | > 200 µM
O=S1(=O)c2ccccc2S(=O)(=O)c2ccccc21 | – | 87.1 µM | > 200 µM
Cc1[nH]c2c(ccc3c2ccc2c(=O)c(Cl)c(C)[nH]c23)c(=O)c1Cl | – | > 200 µM | > 200 µM
O=C(Cc1ccccc1)N/N=C(/c1nc2ccc([N+](=O)[O-])cc2[nH]c1=O)C(O)c1ccco1 (stereo not drawn) | – | > 209 µM | > 209 µM
CCCCN1C(=O)C2c3[nH]c4ccccc4c3C3CCCCC3C2C1=O (mixture of isomers) | inactive | – | –
COc1ccccc1N=Nc1c(-c2ccccc2)nn(C(=O)CC(=O)Nc2cccc(C)c2)c1-c1ccccc1 | – | > 35.5 µM | 20.9 µM
